Assay results as given in ChEMBL document CHEMBL1147811, “Synthesis of EF24-tripeptide chloromethyl ketone: a novel curcumin-related anticancer drug delivery system” (J Med Chem, 2006).

What was measured:
Melanocyte [1] = test: Cytotoxicity against human non-TF expressing melanocytes at 4 uM; format: functional, cell-based
RPMI-7951 [2] = test: Cytotoxicity against human TF expressing RPMI7951 cell line at 2 uM; format: functional, cell-based
MDA-MB-231 = test: Viability of human TF expressing MDA-MB-231 cell line; format: cell-based
[3] = Viability of human non-TF expressing MCF10 cell line; format: cell-based; settings: MCF10 cells (non-TF expressing)
RPMI-7951 [4] = test: Viability of human TF expressing RPMI7951 cell line; format: cell-based
Melanocyte [5] = test: Viability of human non-TF expressing melanocytes; format: cell-based

| Structure (SMILES) | Activity (Melanocyte [1]) | Activity (RPMI-7951 [2]) | Activity (MDA-MB-231) | viability [3] | Activity (RPMI-7951 [4]) | Activity (Melanocyte [5]) |
| --- | --- | --- | --- | --- | --- | --- |
| O=C1/C(=C/c2ccccc2F)CNC/C1=C\c1ccccc1F | Toxic | Toxic | – | – | – | – |
| N=C(N)NCCC[C@H](NC(=O)[C@H](Cc1ccccc1)NC(=O)[C@H](Cc1ccccc1)NC(=O)CCC(=O)N1C/C(=C\c2ccccc2F)C(=O)/C(=C/c2ccccc2F)C1)C(=O)CCl.O=C(O)C(F)(F)F | – | – | Not Active | > 95% | Not Active | Not Active |
